Results taken from PubChem BioAssay (NCI).
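Growth conditions: 96-well plates. Treatment: test compound, 48 hours, 5 concentrations. Analysis: linear interpolation between bracketing concentrations; unreached endpoints set to highest concentration. The concentration for full growth arrest is given as TGI.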

Tested on: SN12K1 renal
Experiment: DTP human tumour cell line panel, 48 h

Row | SMILES | TGI [µM]
1 | O=C1N[C@@H]2C(=C[C@H](O)[C@@H](O)[C@H]2O)c2cc3c(c(O)c21)OCO3 | 0.1
2 | CN1CCN(P2(=S)Oc3ccc4ccccc4c3-c3c(ccc4ccccc34)O2)CC1 | 56.9
3 | CCOC(=O)c1c[nH]c2ccc3c(c2c1=O)S(=O)(=O)CC3 (tested in a mixture with another compound) | > 100
4 | O=NN(CCF)C(=O)NC1CCSCC1 | > 100
